Results from US7473790B2 (Pfizer Inc., priority 2003, dated 2009).

Each molecule was assayed against T1, HCV polymerase (Hepatitis C virus genotype 1b, UniProt P26663) (assay: HCV polymerase primer/template-directed transcription assay (32P-GTP incorporation, filter binding)). Details: recombinant HCV polymerase; 30 minutes at 30° C.; concentration giving 50% inhibition of polymerase-directed transcription; read-out: IC50.
T1 construct: 2.5 pmoles (0.15 μg) HCV polymerase protein in a final volume of 75 μL
Assay type: biochemical
Summary of the method: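 IC50s come from triplicate cpm, refit with an enzyme-concentration (30 nM) correction when under 200 nM. Reactions ran 30 min at 30° C in Tris pH 7.2 with MgCl2, 1 μM GTP spiked with α-32P-GTP, biotin-dG12 primer and poly(rC)300 template, with 1% DMSO. Incorporated label was collected on DE filtermats and counted.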

T1 sequence (P26663 2420-3010): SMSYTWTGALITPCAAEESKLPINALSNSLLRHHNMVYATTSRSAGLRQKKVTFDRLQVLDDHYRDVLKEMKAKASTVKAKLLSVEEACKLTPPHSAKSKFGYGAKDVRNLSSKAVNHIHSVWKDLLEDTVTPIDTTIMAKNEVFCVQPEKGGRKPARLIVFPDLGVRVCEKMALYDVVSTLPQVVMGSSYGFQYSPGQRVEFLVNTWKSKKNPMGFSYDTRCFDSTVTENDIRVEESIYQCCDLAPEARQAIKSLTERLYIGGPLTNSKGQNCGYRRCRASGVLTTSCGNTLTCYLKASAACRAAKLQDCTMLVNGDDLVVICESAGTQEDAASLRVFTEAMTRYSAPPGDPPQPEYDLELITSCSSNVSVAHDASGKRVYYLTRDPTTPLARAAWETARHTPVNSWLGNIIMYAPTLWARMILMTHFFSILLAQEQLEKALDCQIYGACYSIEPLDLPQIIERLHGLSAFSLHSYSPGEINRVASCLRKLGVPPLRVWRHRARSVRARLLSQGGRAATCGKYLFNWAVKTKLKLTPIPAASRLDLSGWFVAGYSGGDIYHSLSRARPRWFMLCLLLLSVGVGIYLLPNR

How did the IC50 turn out when `O=C1CC(=O)OC(CCc2ccc(O)c(F)c2)(C2CCCC2)C1` (stereo not drawn) [A(129), 6-Cyclopentyl-6-[2-(3-fluoro-4-hydroxy-phenyl)-ethyl]-dihydro-pyran-2,4-dione] was run?
The IC50 was 8900 nM.

How did the IC50 turn out when `COc1ccc(CCC2(C3CCCC3)CC(=O)CC(=O)O2)cc1C1CC1` (stereo not drawn) [A(130), 6-Cyclopentyl-6-[2-(3-cyclopropyl-4-methoxy-phenyl)-ethyl]-dihydro-pyran-2,4-dione] was run?
Its IC50 is 1300 nM.

Which IC50 does the source give for `Cc1cc(C)n2nc(CC3=C(O)CC(CCc4ccc(N(C)S(C)(=O)=O)c(F)c4)(C4CCCC4)OC3=O)nc2n1` (stereo not drawn) [A(131), 6-cyclopentyl-3-[(5,7-dimethyl[1,2,4]triazolo[1,5-a]pyrimidin-2-yl)methyl]-6-[2-(3-fluoro-4-{methyl[methyl(dimethylene)-I^6-sulfanyl]amino}phenyl)ethyl]-4-hydroxy-5,6-dihydro-2H-pyran-2-one] here?
The IC50 was 137 nM.

For `CN(c1ccc(CCC2(C3CCCC3)CC(=O)CC(=O)O2)cc1F)S(C)(=O)=O` (stereo not drawn) [A(132), 6-cyclopentyl-6-[2-(3-fluoro-4-{methyl[methyl(dimethylene)-6-sulfanyl]amino}phenyl)ethyl]dihydro-2H-pyran-2,4(3H)-dione], which IC50 is on record?
Its IC50 is 13000 nM.

`Cc1cc(C)n2nc(CC3=C(O)CC(CCc4ccc(N(C)S(C)(=O)=O)cc4)(C4CCCC4)OC3=O)nc2n1` (stereo not drawn) [A(133), 6-cyclopentyl-3-[(5,7-dimethyl[1,2,4]triazolo[1,5-a]pyrimidin-2-yl)methyl]-4-hydroxy-6-[2-(4-{methyl[methyl(dimethylene)-I^6-sulfanyl]amino}phenyl)ethyl]-5,6-dihydro-2H-pyran-2-one] was tested. Which IC50 did it give?
Its IC50 is 72 nM.

How did the IC50 turn out when `O=C1CC(=O)OC(CCc2ccc(N3CCCS3(=O)=O)c(F)c2)(C2CCCC2)C1` (stereo not drawn) [A(134), 6-cyclopentyl-6-{2-[4-(1,1-dioxidoisothiazolidin-2-yl)-3-fluorophenyl]ethyl}dihydro-2H-pyran-2,4(3H)-dione] was run?
Its IC50 is 38000 nM.

Which IC50 does the source give for `Cc1cc(C)n2nc(CC3=C(O)CC(CCc4ccc(O)c(C5CCCC5)c4)(C4CCCC4)OC3=O)nc2n1` (stereo not drawn) [A(135), 6-cyclopentyl-6-[2-(3-cyclopentyl-4-hydroxyphenyl)ethyl]-3-[(5,7-dimethyl[1,2,4]triazolo[1,5-a]pyrimidin-2-yl)methyl]-4-hydroxy-5,6-dihydro-2H-pyran-2-one] here?
Its IC50 is 15 nM.

`CCCc1cc(CCC2(C3CCCC3)CC(O)=C(Cc3nc4nc(C)cc(C)n4n3)C(=O)O2)ccc1O` (stereo not drawn) [A(136), 6-cyclopentyl-3-[(5,7-dimethyl[1,2,4]triazolo[1,5-a]pyrimidin-2-yl)methyl]-4-hydroxy-6-[2-(4-hydroxy-3-propylphenyl)ethyl]-5,6-dihydro-2H-pyran-2-one] was tested. Which IC50 did it give?
The IC50 was 2 nM.

With `CCCc1cc(CCC2(C3CCCC3)CC(O)=C(Cc3nc4nc(CC)cc(CC)n4n3)C(=O)O2)ccc1O` (stereo not drawn) [A(137), 6-cyclopentyl-3-[(5,7-dietylphenyl)ethyl]-5,6-hyl[1,2,4]triazolo[1,5-a]pyrimidin-2-yl)methyl]-4-hydroxy-6-[2-(4-hydroxy-3-propdihydro-2H-pyran-2-one] as the molecule, how does the IC50 read?
Its IC50 is 7 nM.

For `CCc1cc(CC)n2nc(CC3C(=O)CC(CCc4ccc(O)c(CC)c4)(C4CCCC4)OC3=O)nc2n1` (stereo not drawn) [A(138), 6-cyclopentyl-3-[(5,7-diethyl[1,2,4]triazolo[1,5-a]pyrimidin-2-yl)methyl]-6-[2-(3-ethyl-4-hydroxyphenyl)ethyl]-4-hydroxy-5,6-dihydro-2H-pyran-2-one], which IC50 is on record?
Its IC50 is 8 nM.

Which IC50 does the source give for `CCc1cc(CCC2(C3CCCC3)CC(O)=C(Cc3nc4nc(C)cc(C)n4n3)C(=O)O2)ccc1OCCNC(C)=O` (stereo not drawn) [A(139), N-{2-[4-(2-{2-cyclopentyl-5-[(5,7-dimethyl[1,2,4]triazolo[1,5-a]pyrimidin-2-yl)methyl]-4-hydroxy-6-oxo-3,6-dihydro-2H-pyran-2-yl}ethyl)-2-ethylphenoxy]ethyl}acetamide] here?
Its IC50 is 2 nM.

`CC(C)(C#N)c1c(F)cc(CCC2(C3CCCC3)CC(O)=C(Cc3nc4ncc(Cl)cn4n3)C(=O)O2)cc1F` (stereo not drawn) [A(142)] was tested. Which IC50 did it give?
Its IC50 is 4 nM.

With `Cc1cnc2nc(CC3=C(O)CC(CCc4cc(F)c(C(C)(C)C#N)c(F)c4)(C4CCCC4)OC3=O)nn2c1` (stereo not drawn) [A(143), 2-(4-{2-[2-Cyclopentyl-4-hydroxy-5-(6-methyl-[1,2,4]triazolo[1,5-a]pyrimidin-2-ylmethyl)-6-oxo-3,6-dihydro-2H-pyran-2-yl]-ethyl}-2,6-difluoro-phenyl)-2-methyl-propionitrile] as the molecule, how does the IC50 read?
Its IC50 is 9 nM.

For `CC(C)(C#N)c1c(F)cc(CCC2(C3CCCC3)CC(O)=C(Cc3nc4ncccn4n3)C(=O)O2)cc1F` (stereo not drawn) [A(144), 2-{4-[2-(2-Cyclopentyl-4-hydroxy-6-oxo-5-[1,2,4]triazolo[1,5-a]pyrimidin-2-ylmethyl-3,6-dihydro-2H-pyran-2-yl)-ethyl]-2,6-difluoro-phenyl}-2-methyl-propionitrile], which IC50 is on record?
Its IC50 is 11 nM.

For `COC1=CC(=O)OC(CCc2ccc(C(C)(C)C#N)c(F)c2)(C2CCCC2)C1` (stereo not drawn) [A(145), 2-{4-[2-(2-Cyclopentyl-4-methoxy-6-oxo-3,6-dihydro-2H-pyran-2-yl)-ethyl]-2-fluoro-phenyl}-2-methyl-propionitrile], which IC50 is on record?
Its IC50 is 3900 nM.

Which IC50 does the source give for `Cc1cc(C)n2nc(CC3=C(O)CC(CCc4ccc(C(C)(C)C#N)c(Cl)c4)(C4CCCC4)OC3=O)nc2n1` (stereo not drawn) [A(146), 2-(2-Chloro-4-{2-[2-cyclopentyl-5-(5,7-dimethyl-[1,2,4]triazolo[1,5-a]pyrimidin-2-ylmethyl)-4-hydroxy-6-oxo-3,6-dihydro-2H-pyran-2-yl]-ethyl}-phenyl)-2-methyl-propionitrile] here?
The IC50 was 2 nM.

`CC(C)(C#N)c1ccc(CCC2(C3CCCC3)CC(=O)CC(=O)O2)cc1Cl` (stereo not drawn) [A(147), 2-{2-Chloro-4-[2-(2-cyclopentyl-4,6-dioxo-tetrahydro-pyran-2-yl)-ethyl]-phenyl}-2-methyl-propionitrile] was tested. Which IC50 did it give?
Its IC50 is 1400 nM.

`Cc1cc(C)n2nc(CC3=C(O)CC(CCc4ccc(C5(C#N)CC5)c(Cl)c4)(C4CCCC4)OC3=O)nc2n1` (stereo not drawn) [A(148), 1-(2-Chloro-4-{2-[2-cyclopentyl-5-(5,7-dimethyl-[1,2,4]triazolo[1,5-a]pyrimidin-2-ylmethyl)-4-hydroxy-6-oxo-3,6-dihydro-2H-pyran-2-yl]-ethyl}-phenyl)-cyclopropanecarbonitrile] was tested. Which IC50 did it give?
The IC50 was 5 nM.

With `N#CC1(c2ccc(CCC3(C4CCCC4)CC(=O)CC(=O)O3)cc2Cl)CC1` (stereo not drawn) [A(149), 1-{2-Chloro-4-[2-(2-cyclopentyl-4,6-dioxo-tetrahydro-pyran-2-yl)-ethyl]-phenyl}-cyclopropanecarbonitrile] as the molecule, how does the IC50 read?
Its IC50 is 3900 nM.

`CCc1cc(CCC2(C3CCCC3)CC(O)=C(Cc3nc4nc(C)cc(C)n4n3)C(=O)O2)c(OC)cc1O` (stereo not drawn) [A(150), 6-Cyclopentyl-3-(5,7-dimethyl-[1,2,4]triazolo[1,5-a]pyrimidin-2-ylmethyl)-6-[2-(5-ethyl-4-hydroxy-2-methoxy-phenyl)-ethyl]-4-hydroxy-5,6-dihydro-pyran-2-one] was tested. Which IC50 did it give?
Its IC50 is 7 nM.

For `CCc1cc(CCC2(C3CCCC3)CC(=O)CC(=O)O2)c(OC)cc1O` (stereo not drawn) [A(151), 6-Cyclopentyl-6-[2-(5-ethyl-4-hydroxy-2-methoxy-phenyl)-ethyl]-dihydro-pyran-2,4-dione], which IC50 is on record?
Its IC50 is 300 nM.

With `CCc1cc(CCC2(C3CCCC3)CC(O)=C(Cc3nc[nH]c3C)C(=O)O2)c(OC)cc1O` (stereo not drawn) [A(156), 6-Cyclopentyl-6-[2-(5-ethyl-4-hydroxy-2-methoxy-phenyl)-ethyl]-4-hydroxy-3-(5-methyl-1H-imidazol-4-ylmethyl)-5,6-dihydro-pyran-2-one] as the molecule, how does the IC50 read?
Its IC50 is 21 nM.

For `CCc1nc(CC2=C(O)CC(CCc3cc(CC)c(O)cc3OC)(C3CCCC3)OC2=O)c(C)[nH]1` (stereo not drawn) [A(157), 6-Cyclopentyl-6-[2-(5-ethyl-4-hydroxy-2-methoxy-phenyl)-ethyl]-3-(2-ethyl-5-methyl-1H-imidazol-4-ylmethyl)-4-hydroxy-5,6-dihydro-pyran-2-one], which IC50 is on record?
Its IC50 is 65 nM.

How did the IC50 turn out when `CCc1cc(CCC2(C3CCCC3)CC(O)=C(Cc3nc4ncc(Cl)cn4n3)C(=O)O2)c(C)cc1O` (stereo not drawn) [A(160), 3-(6-Chloro-[1,2,4]triazolo[1,5-a]pyrimidin-2-ylmethyl)-6-cyclopentyl-6-[2-(5-ethyl-4-hydroxy-2-methyl-phenyl)-ethyl]-4-hydroxy-5,6-dihydro-pyran-2-one] was run?
The IC50 was 29 nM.

How did the IC50 turn out when `CCc1cc(CCC2(C3CCCC3)CC(O)=C(Cc3nc4ncc(Cl)cn4n3)C(=O)O2)c(F)cc1O` (stereo not drawn) [A(161), 3-(6-Chloro-[1,2,4]triazolo[1,5-a]pyrimidin-2-ylmethyl)-6-cyclopentyl-6-[2-(5-ethyl-2-fluoro-4-hydroxy-phenyl)-ethyl]-4-hydroxy-5,6-dihydro-pyran-2-one] was run?
The IC50 was 8 nM.

`CCc1cc(CCC2(C3CCCC3)CC(O)=C(Cc3nc4nc(C)cc(C)n4n3)C(=O)O2)ccn1` (stereo not drawn) [A(162), 6-Cyclopentyl-3-(5,7-dimethyl-[1,2,4]triazolo[1,5-a]pyrimidin-2-ylmethyl)-6-[2-(2-ethyl-pyridin-4-yl)-ethyl]-4-hydroxy-5,6-dihydro-pyran-2-one] was tested. Which IC50 did it give?
The IC50 was 10 nM.

Which IC50 does the source give for `CCc1cc(CCC2(C3CCCC3)CC(=O)CC(=O)O2)ccn1` (stereo not drawn) [A(163), 6-Cyclopentyl-6-[2-(2-ethyl-pyridin-4-yl)-ethyl]-dihydro-pyran-2,4-dione] here?
Its IC50 is 1900 nM.

For `CCc1cc(CCC2(C3CCCC3)CC(O)=C(Cc3nc4ncc(Cl)cn4n3)C(=O)O2)ccn1` (stereo not drawn) [A(164), 3-(6-Chloro-[1,2,4]triazolo[1,5-a]pyrimidin-2-ylmethyl)-6-cyclopentyl-6-[2-(2-ethyl-pyridin-4-yl)-ethyl]-4-hydroxy-5,6-dihydro-pyran-2-one], which IC50 is on record?
The IC50 was 42 nM.

With `CCc1ccc(O)c(CCC2(C3CCCC3)CC(O)=C(Cc3nc4nc(C)cc(C)n4n3)C(=O)O2)c1` (stereo not drawn) [A(166), 6-Cyclopentyl-3-(5,7-dimethyl-[1,2,4]triazolo[1,5-a]pyrimidin-2-ylmethyl)-6-[2-(5-ethyl-2-hydroxy-phenyl)-ethyl]-4-hydroxy-5,6-dihydro-pyran-2-one] as the molecule, how does the IC50 read?
Its IC50 is 1 nM.

For `CCc1ccc(O)c(CCC2(C3CCCC3)CC(=O)CC(=O)O2)c1` (stereo not drawn) [A(169), 6-Cyclopentyl-6-[2-(5-ethyl-2-hydroxy-phenyl)-ethyl]-dihydro-pyran-2,4-dione], which IC50 is on record?
Its IC50 is 400 nM.
